From patent publication US20210299286A1, “TETRAZINES FOR HIGH CLICK CONJUGATION YIELD IN VIVO AND HIGH CLICK RELEASE YIELD” (Tagworks Pharmaceuticals B.V., priority 2018, published 2021)
Read-outs that look alike come from different tables or passages of the source.

Assays:
[1] = tested on: CC49-TCO-Dox; assay: In vitro Dox release from CC49-TCO-Dox in 50% mouse serum; format: biochemical
Description: (§1) Doxorubicin (Dox) release from the TCO-linked ADC CC49-TCO-Dox with various TZ activators in PBS and 50% mouse serum at 37° C. was evaluated in vitro as described in Rossin et al. Bioconjug. […] The results of these experiments are depicted in Tables 3 (PBS) and 4 (mouse serum). The release reactions were performed in triplicate unless otherwise stated in the result table.

[2] = tested on: CC49-TCO-Dox; assay: In vitro Dox release from CC49-TCO-Dox in PBS; format: biochemical
Description: as §1

[3] = tested on: AVP0458-TCO-MMAE; assay: MMAE release from diabody ADC with D8-MMAE internal standard (LC-SIM-MS); format: biochemical; details: 10 equiv of tetrazine, PBS/plasma (1/1), 37° C., after 24 h, n=3
Description: In an alternative method MMAE release from diabody ADC (AVP0458-TCO-MMAE) was determined by using a deuterated internal standard D8-MMAE. ADC (1.1×10^−10 moles bound MMAE) and D8-MMAE (1.1×10^−10 moles) and 10 equiv of tetrazine were incubated in 100 uL PBS/plasma (1/1) at 37° C.

[4] = tested on: LS174T human colon carcinoma cells; assay: Cell proliferation (MTT) assay of ADCs with range of tetrazines; format: cell-based; details: 3-day incubation; for cell growth inhibition, combination of ADC and activator: CC49-TCO-Dox 0.1 μM or AVP0458-TCO-MMAE 1 nM plus activator 1 μM; for cell growth inhibition, activators alone: activator 1 μM alone
Description: Cell proliferation was assessed after a 3-day incubation by means of an MTT assay and was expressed as the % of that obtained without treatment.

[5] = In vitro tetrazine stability (decrease of UV absorbance at 520 nm); format: physicochemical; details: read-out: In vitro tetrazine stability (h), t1/2 (converted)
Description: The stability of tetrazines was evaluated by dissolving them in 10% MeCN/PBS at 37° C. and following the decrease of the tetrazine UV absorbance at 520 nm in time (Table 4).

[6] = Second-order reaction rate constant with TCO derivative by UV spectroscopy; format: physicochemical; details: 25% MeCN/PBS at 20° C.
Description: The second-order reaction rate constants were calculated from the rate at which the absorption at 520 nm (specific for the TZ moiety) decreased (Table 4).

[7] = Remark on stability of the free base; format: physicochemical; details: intramolecular nucleophilic attack by the amine

Compound: 3,6-dimethyl-1,2,4,5-tetrazine functional dextran [Compound 2.2]
- In vitro Dox release (%) from CC49-Dox at 37° C. in 50% mouse serum: 1 h [1]: 34.0 ± 1.2%
- In vitro Dox release (%) from CC49-Dox at 37° C. in 50% mouse serum: 2 h [1]: 43.4 ± 1.5%
- In vitro Dox release (%) from CC49-Dox at 37° C. in 50% mouse serum: 3 h [1]: 48.6 ± 1.2%
- In vitro Dox release (%) from CC49-Dox at 37° C. in PBS: 1 h [2]: 44.9%
- In vitro Dox release (%) from CC49-Dox at 37° C. in PBS: 2 h [2]: 51.3%
- In vitro Dox release (%) from CC49-Dox at 37° C. in PBS: 3 h [2]: 54.6%
- In vitro Dox release (%) from CC49-Dox at 37° C. in PBS: 24 h [2]: 62.3%

Compound: CN(CCc1nnc(-c2ncccn2)nn1)C(=O)N1CCN(C(=O)c2ccc(F)cc2)CC1 [Compound 4.33, 4-(4-fluorobenzoyl)-N-methyl-N-(2-(6-(pyrimidin-2-yl)-1,2,4,5-tetrazin-3-yl)ethyl)piperazine-1-carboxamide]
- induced MMAE release (%) from AVP0458-TCO-MMAE [3]: 53 ± 0.6%
- cell growth inhibition, combination of ADC and activator [4]: growth inhibition approached that achieved with the corresponding amount of free drug
- cell growth inhibition, activators alone [4]: minimal cell growth inhibition

Compound: Cc1nnc(-c2ccc(NC(=O)CCCC(=O)NCCOCCOCCOCCOCCOCCOCCOCCOCCOCCOCCOCCNC(=O)CN3CCN(CC(=O)O)CCN(CC(=O)O)CCN(CC(=O)O)CC3)cn2)nn1 [Compound 3.4, 2,2′,2″-(10-(44-((6-(6-methyl-1,2,4,5-tetrazin-3-yl)pyridin-3-yl)amino)-2,40,44-trioxo-6,9,12,15,18,21,24,27,30,33,36-undecaoxa-3,39-diazatetratetracontyl)-1,4,7,10-tetraazacyclododecane-1,4,7-triyl)triacetic acid]
- induced MMAE release (%) from AVP0458-TCO-MMAE [3]: 47 ± 0.3%
- cell growth inhibition, combination of ADC and activator [4]: growth inhibition approached that achieved with the corresponding amount of free drug
- cell growth inhibition, activators alone [4]: minimal cell growth inhibition

Compound: CN(CCc1nnc(-c2ncccn2)nn1)C(=O)c1ccc(F)cc1 [Compound 4.35, 4-fluoro-N-methyl-N-(2-(6-(pyrimidin-2-yl)-1,2,4,5-tetrazin-3-yl)ethyl)benzamide]
- induced MMAE release (%) from AVP0458-TCO-MMAE [3]: 67 ± 0.1%
- cell growth inhibition, combination of ADC and activator [4]: growth inhibition approached that achieved with the corresponding amount of free drug
- cell growth inhibition, activators alone [4]: minimal cell growth inhibition

Compound: Cc1nnc(-c2cnccn2)nn1 [Compound 4.18]
- induced MMAE release (%) from AVP0458-TCO-MMAE [3]: 55 ± 0.8%
- half-life ([5]; 10% MeCN/PBS): 16 h
- reactivity (k2) [6]: 150 M⁻¹ s⁻¹

Compound: Cc1nnc(-c2nccc(CNC(=O)CCCC(=O)O)n2)nn1 [Compound 4.27]
- induced MMAE release (%) from AVP0458-TCO-MMAE [3]: 66 ± 0.5%

Compound: 3-(pyridin-2-yl)-6-methyl-1,2,4,5-tetrazine functional dextran [Compound 3.2]
- In vitro Dox release (%) from CC49-Dox at 37° C. in 50% mouse serum: 1 h [1]: 36.1 ± 0.1%
- In vitro Dox release (%) from CC49-Dox at 37° C. in 50% mouse serum: 2 h [1]: 39.8 ± 0.2%
- In vitro Dox release (%) from CC49-Dox at 37° C. in 50% mouse serum: 3 h [1]: 42.0 ± 0.4%
- In vitro Dox release (%) from CC49-Dox at 37° C. in PBS: 1 h [2]: 44.3%
- In vitro Dox release (%) from CC49-Dox at 37° C. in PBS: 2 h [2]: 44.7%
- In vitro Dox release (%) from CC49-Dox at 37° C. in PBS: 3 h [2]: 47.5%
- In vitro Dox release (%) from CC49-Dox at 37° C. in PBS: 24 h [2]: 45.0%

Compound: Cc1nnc(-c2nccc(C(=O)O)n2)nn1 [Compound 4.23]
- induced MMAE release (%) from AVP0458-TCO-MMAE [3]: 69 ± 0.5%
- half-life ([5]; 10% MeCN/PBS): 6 h
- reactivity (k2) [6]: 246 M⁻¹ s⁻¹

Compound: COCCOCCOCCOCCOCCOCCOCCOCCOCCOCCOCC(=O)NCCCc1nnc(-c2ncccn2)nn1 [Compound 4.24]
- half-life ([5]; 10% MeCN/PBS): 13 h

Compound: O=C(O)CN1CCN(CC(=O)O)CCN(CC(=O)NCCOCCNC(=O)CCCC(=O)NCCCc2nnc(CCCNC(=O)CCCC(=O)NCCOCCNC(=O)CN3CCN(CC(=O)O)CCN(CC(=O)O)CCN(CC(=O)O)CC3)nn2)CCN(CC(=O)O)CC1 [Compound 5.3, Tz-bis-DOTA]
- In vitro Dox release (%) from CC49-Dox at 37° C. in 50% mouse serum: 1 h [1]: 43.6 ± 3.5%
- In vitro Dox release (%) from CC49-Dox at 37° C. in 50% mouse serum: 2 h [1]: 54.9 ± 6.0%
- In vitro Dox release (%) from CC49-Dox at 37° C. in 50% mouse serum: 3 h [1]: 64.4 ± 3.3%
- In vitro Dox release (%) from CC49-Dox at 37° C. in 50% mouse serum: 6 h ([1]; 6 h): 67.5 ± 8.3%
- In vitro Dox release (%) from CC49-Dox at 37° C. in PBS: 1 h [2]: 50.5%
- In vitro Dox release (%) from CC49-Dox at 37° C. in PBS: 2 h [2]: 59.3%
- In vitro Dox release (%) from CC49-Dox at 37° C. in PBS: 3 h [2]: 62.5%
- In vitro Dox release (%) from CC49-Dox at 37° C. in PBS: 24 h [2]: 80.3%
- In vitro Dox release (%) from CC49-Dox at 37° C. in PBS: 48 h [2]: 91.2%

Compound: Cc1nnc(-c2nccc(CNC(=O)CN(CCN(CC(=O)O)CC(=O)O)CC(=O)O)n2)nn1 [Compound 4.26]
- induced MMAE release (%) from AVP0458-TCO-MMAE [3]: 59 ± 0.6%
- half-life ([5]; 10% MeCN/PBS): 13 h
- reactivity (k2) [6]: 135 M⁻¹ s⁻¹
- cell growth inhibition, combination of ADC and activator [4]: growth inhibition approached that achieved with the corresponding amount of free drug
- cell growth inhibition, activators alone [4]: minimal cell growth inhibition

Compound: Cc1nnc(-c2ccccn2)nn1 [Compound 3.1, 3-(2-pyridyl)-6-methyl-1,2,4,5-tetrazine]
- In vitro Dox release (%) from CC49-Dox at 37° C. in 50% mouse serum: 1 h [1]: 53.8 ± 1.7%
- In vitro Dox release (%) from CC49-Dox at 37° C. in 50% mouse serum: 2 h [1]: 57.1 ± 1.8%
- In vitro Dox release (%) from CC49-Dox at 37° C. in 50% mouse serum: 3 h [1]: 59.6 ± 2.0%
- In vitro Dox release (%) from CC49-Dox at 37° C. in PBS: 1 h [2]: 55.1%
- In vitro Dox release (%) from CC49-Dox at 37° C. in PBS: 2 h [2]: 55.9%
- In vitro Dox release (%) from CC49-Dox at 37° C. in PBS: 3 h [2]: 58.9%
- In vitro Dox release (%) from CC49-Dox at 37° C. in PBS: 24 h [2]: 59.6%

Compound: Cc1nnc(-c2nccnc2C)nn1 [Compound 4.20]
- induced MMAE release (%) from AVP0458-TCO-MMAE [3]: 59 ± 0.3%
- half-life ([5]; 10% MeCN/PBS): 15 h
- reactivity (k2) [6]: 28 M⁻¹ s⁻¹

Compound: NCCc1nnc(-c2nccc(CNC(=O)CCCC(=O)NC(CO)(CO)CO)n2)nn1 [Compound 5.8]
- induced MMAE release (%) from AVP0458-TCO-MMAE [3]: 80 ± 0.5%

Compound: NCCCc1nnc(-c2ncccn2)nn1 [Compound 4.6]
- stability in free base form [7]: highly unstable

Compound: Cc1nnc(-c2ccncn2)nn1 [Compound 4.19]
- induced MMAE release (%) from AVP0458-TCO-MMAE [3]: 60 ± 0.1%
- half-life ([5]; buffer): 1 h
- reactivity (k2) [6]: 290 M⁻¹ s⁻¹

Compound: O=C(O)CN1CCN(CC(=O)O)CCN(CC(=O)NCCOCCOCCOCCOCCOCCOCCOCCOCCOCCOCCOCCNC(=O)CCCC(=O)Nc2ccc(-c3nnc(-c4ccccn4)nn3)nc2)CCN(CC(=O)O)CC1 [Compound 5.1, 2,2′,2″-(10-(2,40,44-Trioxo-44-((6-(6-(pyridine-2-yl)-1,2,4,5-tetrazin-3-yl)pyridine-3-yl)amino)-6,9,12,15,18,21,24,27,30,33,36-undecaoxa-3,39-diazatetratetracontyl)-1,4,7,10-tetraazacyclododecane-1,4,7-triyl)triacetic acid]
- In vitro Dox release (%) from CC49-Dox at 37° C. in 50% mouse serum: 1 h [1]: 13.7 ± 0.7%
- In vitro Dox release (%) from CC49-Dox at 37° C. in 50% mouse serum: 2 h [1]: 15.2 ± 1.4%
- In vitro Dox release (%) from CC49-Dox at 37° C. in 50% mouse serum: 3 h [1]: 14.8 ± 0.8%
- In vitro Dox release (%) from CC49-Dox at 37° C. in PBS: 1 h [2]: 14.2%
- In vitro Dox release (%) from CC49-Dox at 37° C. in PBS: 2 h [2]: 20.4%
- In vitro Dox release (%) from CC49-Dox at 37° C. in PBS: 3 h [2]: 24.3%
- In vitro Dox release (%) from CC49-Dox at 37° C. in PBS: 24 h [2]: 48.1%
- In vitro Dox release (%) from CC49-Dox at 37° C. in PBS: 48 h [2]: 54.9%

Compound: Cc1nnc(-c2nccc(CNC(=O)OC(C)(C)C)n2)nn1 [Compound 4.17]
- induced MMAE release (%) from AVP0458-TCO-MMAE [3]: 70 ± 0.1%
- half-life ([5]; 10% MeCN/PBS): 12 h
- reactivity (k2) [6]: 412 M⁻¹ s⁻¹

Compound: NCCc1nnc(-c2nccc(CNC(=O)CCCC(=O)O)n2)nn1 [Compound 5.5]
- induced MMAE release (%) from AVP0458-TCO-MMAE [3]: 81 ± 0.4%
